Experimental data from patent US11584800B2, “Method of treating cancer comprising administration of anti-HER2 antibody-drug conjugate” (DAIICHI SANKYO COMPANY, LIMITED, priority 2014, dated 2023).

How the values were obtained:
[1] = tested on: breast cancer ST225 tumor moderately expressing HER2; test: Antitumor test (6), patient-derived breast cancer ST225 in nude mice; type: in vivo, nude mouse; settings: 10 mg/kg intravenously on Day 0; HER2 score 2+; FIG. 8
Experimental: (§1) Assay and calculation expression: The major axis and minor axis of tumor were measured twice a week by using an electronic digital caliper, and the tumor volume (mm^3) was calculated. The calculation expression is as shown below.

[2] = tested on: Human gastric cancer line NCI-N87 cells; test: Antitumor test (2), NCI-N87 subcutaneous transplant in nude mice; type: in vivo, nude mouse; settings: 10 mg/kg intravenously on Day 7; FIG. 4
Experimental: Mouse: 5- to 6-week-old female nude mice (Charles River Laboratories Japan, Inc.) were acclimatized for 4 to 7 days under SPF conditions before use in the experiment. The mice were fed with sterilized solid feed (FR-2, Funabashi Farms Co., Ltd) and given sterilized tap water (prepared by the addition of 5 to 15 ppm sodium hypochlorite solution). Assay and calculation expression: In all studies, the major axis and minor axis of a tumor were measured twice a week by using an electronic digital caliper ([…] Corp.), and the tumor volume (mm^3) was calculated. The calculation expression is as shown below. […] Human gastric cancer line NCI-N87 cells purchased from ATCC (American Type Culture Collection) were suspended in physiological saline, and 1×10^7 cells were subcutaneously transplanted to the right side of the body of each female nude mouse (Day 0), and the mice were randomly grouped on Day 7. […] An untreated group was established as a control group.

[3] = tested on: colorectal cancer CTG-0401 tumor low or moderately expressing HER2; test: Antitumor test (8), patient-derived colorectal cancer CTG-0401 in nude mice; type: in vivo, nude mouse; settings: 10 mg/kg intravenously on Day 0; HER2 score 1+ or 2+; FIG. 10
Experimental: as §1

[4] = tested on: esophageal cancer CTG-0137 tumor highly expressing HER2; test: Antitumor test (11), patient-derived esophageal cancer CTG-0137 in nude mice; type: in vivo, nude mouse; settings: 10 mg/kg intravenously on Day 0; HER2 score 3+; FIG. 13
Experimental: as §1

[5] = tested on: Human ovarian cancer line SK-OV-3 cells highly expressing HER2; test: Antitumor test (12), SK-OV-3 solid tumor in nude mice; type: in vivo, nude mouse; settings: 10 mg/kg intravenously on Day 0, FIG. 14
Experimental: (§2) Assay and calculation expression: In all studies, the major axis and minor axis of a tumor were measured twice a week by using an electronic digital caliper (CD-15CX, Mitutoyo Corp.), and the tumor volume (mm^3) was calculated. The calculation expression is as shown below. Tumor volume(mm^3)=½×Major axis (mm)×[Minor axis (mm)]^2
(§3) All of the antibody-drug conjugates and the antibody were diluted with physiological saline (Otsuka Pharmaceutical Factory, Inc.) and used at a volume of 10 mL/kg for intravenous administration to the tail vein of each mouse.
Human ovarian cancer line SK-OV-3 cells highly expressing HER2 purchased from ATCC were suspended in physiological saline, and 4×10^7 cells were subcutaneously transplanted to the right side of the body of each female nude mouse to prepare SK-OV-3 solid tumor. Thereafter, this solid tumor was maintained at several passages by transplantation to female nude mice and used in this test. […]

[6] = tested on: non-small cell lung cancer CTG-0860 tumor moderately expressing HER2; test: Antitumor test (9), patient-derived non-small cell lung cancer CTG-0860 in nude mice; type: in vivo, nude mouse; settings: 10 mg/kg intravenously on Day 0; HER2 score 2+; FIG. 11
Experimental: as §1

[7] = tested on: breast cancer ST910 tumor low expressing HER2; test: Antitumor test (7), patient-derived breast cancer ST910 in nude mice; type: in vivo, nude mouse; settings: 10 mg/kg intravenously on Day 0; HER2 score 1+; FIG. 9
Experimental: as §1

[8] = tested on: bile duct cancer CTG-0927 tumor highly expressing HER2; test: Antitumor test (10), patient-derived bile duct cancer CTG-0927 in nude mice; type: in vivo, nude mouse; settings: 10 mg/kg intravenously on Day 0; HER2 score 3+; FIG. 12
Experimental: as §1

[9] = tested on: Human pancreatic cancer line Capan-1 cells weakly expressing HER2; test: Antitumor test (4), Capan-1 solid tumor in nude mice; type: in vivo, nude mouse; settings: 10 mg/kg intravenously on Day 20; tumor with low HER2 expression; FIG. 6
Experimental: as §2, §3
Human pancreatic cancer line Capan-1 cells (ATCC) weakly expressing HER2 were suspended in physiological saline, and 4×10^7 cells were subcutaneously transplanted to the right side of the body of each female nude mouse to generate Capan-1 solid tumor. Thereafter, this solid tumor was maintained at several passages by transplantation to female nude mice and used in this test. […]

[10] = tested on: Human breast cancer line JIMT-1 cells; test: Antitumor test (3), JIMT-1 subcutaneous transplant in nude mice; type: in vivo, nude mouse; settings: 10 mg/kg intravenously on Days 12 and 19; FIG. 5
Experimental: as §2, §3
Human breast cancer line JIMT-1 cells purchased from DSMZ (Deutsche Sammlung von Mikroorganismen und Zellkulturen GmbH) were suspended in physiological saline, and 3×10^6 cells were subcutaneously transplanted to the right side of the body of each female nude mouse (Day 0), and the mice were randomly grouped on Day 12. […] A physiological saline administration group was established as a control group.

[11] = Self-degradation of aminal structure of released drug derivative; type: physicochemical

Compound | growth of the breast cancer ST225 tumor (tumor volume) [1] | antitumor effect (tumor volume), NCI-N87 [2] | growth of the colorectal cancer CTG-0401 tumor (tumor volume) [3] | growth of the esophageal cancer CTG-0137 tumor (tumor volume) [4] | growth of the SK-OV-3 tumor (tumor volume) [5] | growth of the non-small cell lung cancer CTG-0860 tumor (tumor volume) [6] | growth of the breast cancer ST910 tumor (tumor volume) [7] | growth of the bile duct cancer CTG-0927 tumor (tumor volume) [8] | growth of the Capan-1 tumor (tumor volume) [9] | growth of the JIMT-1 tumor (tumor volume) [10] | stability of the aminal structure; releases HO—CH2—C(═O)—(NH-DX) [11]
trastuzumab emtansine | remarkably inhibited the growth of the tumor | tumor regression | did not inhibit the growth | remarkably inhibited the growth of the tumor | remarkably inhibited the growth of the tumor | did not inhibit the growth | did not inhibit the growth | inhibited the growth of the tumor | did not inhibit the growth of the Capan-1 tumor | did not inhibit the growth of the JIMT-1 tumor | –
CC[C@@]1(O)C(=O)OCc2c1cc1n(c2=O)Cc2c-1nc1cc(F)c(C)c3c1c2[C@@H](NC(=O)COCN)CC3 [NH2—CH2—O—CH2—C(═O)—(NH-DX)] | – | – | – | – | – | – | – | – | – | – | undergoes a self-degradation
